Test results: paper PMC8414367, “(E)-7-Ethylidene-lithocholic Acid (7-ELCA) Is a Potent Dual Farnesoid X Receptor (FXR) Antagonist and GPBAR1 Agonist Inhibiting FXR-Induced Gene Expression in Hepatocytes and Stimulating Glucagon-like Peptide-1 Secretion From Enteroendocrine Cells” (Frontiers in Pharmacology, 2021)
Several values for one entry are separate records, joined by “and”; a condition that tells them apart may be missing. Equal entries are not always repeated. Where two headings read alike, the source gives them in different places.

Assays:
MTS viability assay = assay type: cell-based, murine; conditions: mouse, AML12 cells; AML12, 24 h, vehicle = 100%
Description: (§1) The potential cytotoxicity of 7-alkylated chenodeoxycholic acid derivatives were assessed in different human (HepG2, HepaRG and Huh7) and murine (AML12) hepatocyte-derived cell lines. For this purpose, hepatic cells were treated at increasing concentration for 24h and analyzed by MTS viability assay.
(§2) Table S2. Cell viability was determined using the Cell Titer 96 Aqueous One Solution Cell Proliferation Assay (MTS assay) after treatment with test compounds for 24 h in four different hepatic cell lines. Vehicle (0.1% DMSO) and background (10% SDS; v/v, toxic control) controls of cell viability were set to be 100% and 0%, respectively.

AML12 = test: MTS viability assay; assay type: cell-based, murine; conditions: Mus musculus; AML12, 24 h, MTS; read-out: IC50 (µM), cell viability
Description: as §1, §2

FXR LBD = target: T1, FXR LBD (Homo sapiens, UniProt Q96RI1); test: LanthaScreen TR-FRET FXR Coactivator Assay, antagonistic mode (SRC-2 peptide recruitment); assay type: biochemical
T1 construct: purchased ThermoFisher Scientific PV4833
T1 sequence (Q96RI1 262-486 limits assumed): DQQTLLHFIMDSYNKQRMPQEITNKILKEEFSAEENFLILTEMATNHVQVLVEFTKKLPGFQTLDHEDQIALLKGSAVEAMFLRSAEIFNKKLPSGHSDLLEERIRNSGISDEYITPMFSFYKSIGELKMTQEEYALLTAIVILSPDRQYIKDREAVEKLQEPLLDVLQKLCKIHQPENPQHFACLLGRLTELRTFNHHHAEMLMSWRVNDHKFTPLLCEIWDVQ
Description: The LanthaScreen® TR-FRET FXR Coactivator Assay (goat, PV4833, ThermoFisher Scientific) was performed to assess the affinity of tested compounds to FXR ligand-binding domain (LBD) in agonistic and antagonistic models. In the antagonistic assays, the FXR LBD was co-incubated with OCA or GW4064, together with tested ligands in increasing concentrations. The assay was performed according to the manufacturer’s protocols. […] Data have been obtained from three independent experiments performed in 4 replicates.

human FXR = target: T2, human FXR (Homo sapiens, UniProt Q96RI1); test: FXR luciferase reporter gene assay (FXRE-luc) in HepG2 cells, antagonistic mode; assay type: cell-based; conditions: for IC50: HepG2, co-treatment with 1 µM OCA, 24 h, read-out: IC50, inhibition of OCA-induced FXR activation
T2 sequence (Q96RI1 1-486): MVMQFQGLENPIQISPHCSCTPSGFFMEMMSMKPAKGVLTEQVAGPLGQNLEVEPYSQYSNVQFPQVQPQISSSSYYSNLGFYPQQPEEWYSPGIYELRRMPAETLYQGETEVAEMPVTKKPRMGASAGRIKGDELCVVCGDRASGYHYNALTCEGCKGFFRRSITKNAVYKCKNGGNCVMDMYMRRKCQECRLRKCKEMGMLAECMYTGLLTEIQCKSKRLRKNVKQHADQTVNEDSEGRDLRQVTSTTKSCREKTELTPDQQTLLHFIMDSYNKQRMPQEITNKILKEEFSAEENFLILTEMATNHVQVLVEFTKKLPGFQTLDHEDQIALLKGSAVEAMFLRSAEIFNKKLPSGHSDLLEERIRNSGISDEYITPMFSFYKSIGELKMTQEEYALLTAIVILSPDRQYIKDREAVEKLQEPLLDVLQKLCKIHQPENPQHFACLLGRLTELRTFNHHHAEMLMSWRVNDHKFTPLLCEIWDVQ
T2 sequence (P19793 1-462 partner): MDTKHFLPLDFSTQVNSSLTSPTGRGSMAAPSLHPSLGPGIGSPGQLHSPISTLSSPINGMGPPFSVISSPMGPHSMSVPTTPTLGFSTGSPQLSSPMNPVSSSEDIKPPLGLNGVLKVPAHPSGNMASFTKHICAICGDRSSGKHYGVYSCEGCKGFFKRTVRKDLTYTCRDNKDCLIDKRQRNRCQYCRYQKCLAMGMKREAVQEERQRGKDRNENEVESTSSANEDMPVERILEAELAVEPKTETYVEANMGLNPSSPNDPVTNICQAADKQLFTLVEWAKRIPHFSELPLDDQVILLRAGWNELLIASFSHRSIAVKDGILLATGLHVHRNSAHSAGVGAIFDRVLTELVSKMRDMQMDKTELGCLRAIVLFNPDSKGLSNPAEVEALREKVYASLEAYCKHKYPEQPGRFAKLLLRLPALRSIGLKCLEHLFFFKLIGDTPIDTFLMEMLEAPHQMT

[1] = system: BSEP and SHP mRNA (FXR target genes), primary human hepatocytes; test: RT-qPCR of FXR target genes in primary human hepatocytes; assay type: cell-based; conditions: for BSEP mRNA level upregulated by OCA / SHP mRNA level upregulated by OCA: 40 µM with OCA 1 µM, 24 h; for BSEP and SHP mRNA expression, compound per se: without OCA
Excerpt: Total RNA from HepaRG cells or primary human hepatocyte samples was isolated by the phenol/chloroform method with TRI-reagent (Merck) according to the manufacturer's protocol. The cDNA was synthesized using a Tetro cDNA Synthesis Kit (Bioline, now Meridian Bioscience, Memphis, United States), and RT-qPCR was run in the Quant Studio 6 instrument using the Fast Advanced Master Mix (ThermoFisher Scientific, Waltham, United States) according to the MIQE protocols. All the probes were obtained from ThermoFisher Scientific: ABCB11 (BSEP, Hs00184824_m1), NR0B2 (SHP, Hs00222677_m1).
(§3) FIGURE 6 Regulation of FXR downstream genes by 7-ELCA and 7β-propyl-CDCA in the presence or absence of 1 µM OCA as the potent FXR agonist. Real-time qPCR analysis of mRNA expression of (A,C) BSEP and (B,D) SHP genes was performed in terminally differentiated HepaRG hepatic cells (A,B), and in primary human hepatocytes (PHH) from one donor treated for 24 h (C,D). (E) SHP protein expression in HepaRG cells after 48 h treatment with OCA alone or in combination with 7-ELCA and 7β-propyl-CDCA. Data were normalized to B2M mRNA or GAPDH protein and are expressed relative to those of control (vehicle-treated) cells.

[2] = system: SHP protein, HepaRG cells; test: Western blot of SHP protein in HepaRG cells; assay type: cell-based, human; conditions: with OCA 1 µM, 48 h
Description: Protein determination was performed from whole-cell lysates of terminally differentiated HepaRG cells treated for 48 h. Protein levels were quantified using a PierceTM BCA Protein Assay Kit (ThermoFisher Scientific, Waltham, United States) according to the manufacturer's protocol. The western blotting analysis was performed as described in our previous paper ([Stefela et al., 2020]) with mouse monoclonal anti-SHP antibody (clone OTI5F10, Cat. No. TA806319, Origene, Rockville, MD, United States) and antibody against GAPDH (Cell Signaling Technology, Leiden, the Netherlands) as a loading control. Protein concentration was measured using the BCA protein assay (Sigma-Aldrich/Merck, Prague, Czech Republic). Protein expression quantification was done using densitometric software (LabImage, Kapelan Bio-Imaging, Germany).
as §3, with “Data were normalized to B2M mRNA or GAPDH protein and are expressed relative to those of control (vehicle-treated) cells.” left out

[3] = GW4064 1 µM, read-out: IC50, inhibition of GW4064-promoted interaction of SRC-2 and FXR
[4] = OCA 1 µM, read-out: IC50, inhibition of OCA-induced recruitment of SRC-2 to FXR LBD
[5] = HepG2, read-out: relative response (%) to the model FXR ligand activation (set to be 100%), GW4064 1 µM

SMILES | viability at 24 h, 10 µM (MTS viability assay) | IC50 (AML12) | IC50 (FXR LBD; [3]) | IC50 (FXR LBD; [4]) | IC50 (human FXR) | inhibition at 100 µM (human FXR; HepG2, read-out: inhibition of FXR activation) | remaining activity at 40 µM (human FXR; HepG2, read-out: relative response (%) to the model FXR ligand activation (set to be 100%), CDCA 20 µM) | remaining activity at 10 µM (human FXR; [5]) | remaining activity at 40 µM (human FXR; [5]) | capacity to antagonize OCA-stimulated FXR activation (in words) (human FXR; with 1 µM OCA, Figure 3B) | BSEP mRNA level upregulated by OCA [1] | SHP mRNA level upregulated by OCA [1] | BSEP and SHP mRNA expression, compound per se [1] | SHP protein expression in cells treated with OCA [2] | inhibition at 100 µM (human FXR; HepG2, at 100 µM, with 1 µM OCA, read-out: inhibition of FXR activation) | remaining activity at 10 µM (human FXR; HepG2, tested compound 10 µM, GW4064 1 µM, read-out: relative response (%) to the model FXR ligand activation (set to be 100%), GW4064 1 µM) | remaining activity at 40 µM (human FXR; HepG2, tested compound 40 µM, CDCA 20 µM, * = significant effect on cellular viability, read-out: relative response (%) to the model FXR ligand activation (set to be 100%), CDCA 20 µM) | remaining activity at 40 µM (human FXR; HepG2, tested compound 40 µM, GW4064 1 µM, * = significant effect on cellular viability, read-out: relative response (%) to the model FXR ligand activation (set to be 100%), GW4064 1 µM)
C/C=C1\C[C@@H]2C[C@H](O)CC[C@]2(C)[C@H]2CC[C@]3(C)[C@@H]([C@H](C)CCC(=O)O)CC[C@H]3[C@H]12 [2a, (E)-3α-Hydroxy-7-ethylidene-5β-cholan-24-oic acid] | 108 ± 4.8% | > 200 µM | 6.6 ± 2.9 µM | 18 ± 2.7 µM | 15 µM and 15.1 µM | ~95% | 67.3 ± 0.6% | 82.9 ± 2.3% | 51.1 ± 2.9% | most potent FXR antagonist | reduced | reduced | did not have an impact | FXR antagonistic effect | – | – | – | –
CCC[C@@]1(O)C[C@@H]2C[C@H](O)CC[C@]2(C)C2CC[C@@]3(C)C(CC[C@@H]3[C@H](C)CCC(=O)O)C21 (stereo partly drawn) [2f, 3α,7α-Dihydroxy-7β-propyl-5β-cholan-24-oic acid] | 81.2 ± 1% | 90.8 µM | 13.8 ± 2.5 µM | 26.5 ± 2 µM | 20.5 ± 1 µM | – | – | – | – | – | reduced | reduced | did not have an impact | FXR antagonistic effect | ~85% | 85.7 ± 11.2% | 96.4 ± 0.7% | 61.7 ± 10.8%
